Measured values: ChEMBL document CHEMBL4431295 (Medchemcomm, 2016)

What was measured:
MGC-803 = experiment: Antiproliferative activity against human MGC803 cells after 72 hrs by MTT assay; type: functional, cell-based; conditions: MGC-803, 72 h
HepG2 = experiment: Antiproliferative activity against human HepG2 cells after 72 hrs by MTT assay; type: functional, cell-based; conditions: HepG2, 72 h
SK-N-SH = experiment: Antiproliferative activity against human SK-N-SH cells after 72 hrs by MTT assay; type: functional, cell-based
GES1 = experiment: Cytotoxicity against human GES-1 cells assessed as cell growth inhibition after 72 hrs by MTT assay; type: cell-based; conditions: GES1, 72 h

SMILES	IC50 (MGC-803) [µM]	IC50 (HepG2) [µM]	IC50 (SK-N-SH) [µM]	IC50 (GES1) [µM]
O=C(/C=C/c1cccnc1)c1ccc(NCc2cn(Cc3ccc(C(F)(F)F)cc3)nn2)cc1	7.19	9.24	7.26	–
O=c1[nH]cc(F)c(=O)[nH]1 [FLUOROURACIL]	7.22	10.3	10.3	7.22
O=C(/C=C/c1ccccc1F)c1ccc(OCc2cn(Cc3ccccc3)nn2)cc1	50.6	18.4	28.6	–
O=C(/C=C/c1cccs1)c1ccc(NCc2cn(Cc3ccc(Cl)cc3)nn2)cc1	29.6	39.2	30.9	–
O=C(/C=C/c1ccncc1)c1ccc(NCc2cn(Cc3ccccc3)nn2)cc1	17.1	7.02	5.23	–
COc1ccc(/C=C/C(=O)c2ccc(OCc3cn(Cc4ccccc4)nn3)cc2)c(OC)c1OC	37.2	9.35	14.5	–
O=C(/C=C/c1cccnc1)c1ccc(NCc2cn(Cc3ccc(Cl)cc3)nn2)cc1	7.03	9.32	4.36	–
O=C(/C=C/c1ccco1)c1ccc(NCc2cn(Cc3ccccc3)nn2)cc1	37.3	42.5	39.2	–
COc1cc(OC)c(/C=C/C(=O)c2ccc(NCc3cn(Cc4ccccc4)nn3)cc2)c(OC)c1	6.26	10.4	6.26	–
Nc1ccc(C(=O)/C=C/c2ccc(Cl)cc2)cc1	61.2	55.6	58.2	–
O=C(/C=C/c1cccnc1)c1ccc(OCc2cn(Cc3ccccc3)nn2)cc1	10.2	5.22	6.37	–
O=C(/C=C/c1ccc(Cl)cc1)c1ccc(OCc2cn(Cc3ccccc3)nn2)cc1	43.2	21	17.5	–
COc1cccc(Cn2cc(CNc3ccc(C(=O)/C=C/c4ccc(Cl)cc4)cc3)nn2)c1	38.6	34.7	21.2	–
COc1ccccc1/C=C/C(=O)c1ccc(OCc2cn(Cc3ccccc3)nn2)cc1	> 64	24.8	26.7	–
